# Target: Human immunodeficiency virus type 1 integrase (Human immunodeficiency virus 1, UniProt Q7ZJM1)
# Experiment: Inhibitory activity of compound against HIV-1 integrase
# Human immunodeficiency virus type 1 integrase, sequence (Q7ZJM1 whole entry): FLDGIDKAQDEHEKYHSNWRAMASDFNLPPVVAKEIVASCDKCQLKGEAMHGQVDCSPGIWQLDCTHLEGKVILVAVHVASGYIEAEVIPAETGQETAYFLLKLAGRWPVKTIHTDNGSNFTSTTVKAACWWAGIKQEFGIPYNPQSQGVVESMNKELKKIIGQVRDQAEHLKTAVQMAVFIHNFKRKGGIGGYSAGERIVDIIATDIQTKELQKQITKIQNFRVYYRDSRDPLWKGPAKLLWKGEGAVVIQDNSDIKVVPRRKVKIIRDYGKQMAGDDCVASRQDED
row,Compound,IC50 [µM]
1,H-QETAYFLLKLAGR-NH2,150
2,H-STTVKAASWWA-NH2,> 1000
3,H-QETAYFLLKLAGRWP-NH2,35
4,H-GYIEAEVI-NH2,> 1000

# The next compounds have a lower IC50 than those just listed; values first:
row,IC50 [µM],Compound
1,30,CC[C@@H](C)[C@H](NC(=O)[C@H](CCCNC(=N)N)NC(=O)[C@H](CCC(=O)O)NC(=O)CNC(=O)[C@H](C)N)C(=O)N[C@H](C(=O)N[C@@H](CC(=O)O)C(=O)N[C@H](C(=O)N[C@H](C(=O)N[C@@H](C)C(N)=O)[C@@H](C)CC)[C@@H](C)CC)C(C)C
2,2,H-AGERIVDIIATDIQ-NH2
3,3,H-HLKTAVQMAVFIHNFKR-NH2
